Common to all, as to type: cell-based
The test system of one test is A431 (EGFR-WT). The test is described as follows: Proliferation experiment, A431 cell line (CellTiter-Glo). Particulars: Homo sapiens, A-431; A431 cells, cultured for 72 hrs with compound, CTG analysis. The method, then: [The procedure below names another cell line; the source lists this cell line under the same test.] (§1) Proliferation Experiment of Ba/F3 Cell Line
(§2) (I) Reagents and Materials
(§3) • Fetal bovine serum FBS (GBICO, Cat #10099-141); • CellTiter-Glo® luminescent cell viability assay kit (Promega, Cat #G7572); • Black transparent flat-bottom 96 well plate (Corning®, Cat #3603). (II) Instruments • SpectraMax multi-label microplate reader MD, 2104-0010A; • Carbon dioxide incubator, Thermo Scientific 3100 series; • Biological safety cabinet, Thermo Scientific, 1300 series model A2; • Inverted microscope, Olympus, CKX41SF; • Siemens refrigerator KK25E76TI. (III) Cell Lines and Culture Conditions
(§4) (IV) Experimental Procedures 1. Cell Culture and Inoculation: • (1) Cells in the logarithmic growth phase were harvested and counted using a […]. Cell viability was detected by Trypan Blue Dye Exclusion Method to ensure cell viability above 90%. • (2) The cell concentration was adjusted to reach a desired final density; 90 μL of cell suspension was added to the 96-well plate. • (3) The cells were incubated overnight in the 96-well plate at 37° C., 5% CO2 and at 95% humidity.
(§5) 2. T0 Reference Data: • (1) 10 μL PBS was added to each well of the TO plate containing the cells. • (2) The CTG reagent was thawed and the cell plate was equilibrated to room temperature for 30 min. • (3) An equal volume of CTG solution was added to each well. • (4) The cells were lysed by shaking on an orbital shaker for 5 min. • (5) The cell plate was left at room temperature for 20 min to stabilize the luminescence signal. • (6) The fluorescence signal values of TO were read. 3. Dilution and Addition of Compounds • (1) According to the compound information table, a corresponding volume of DMSO was added to the corresponding compound powder to prepare a 10 mM stock solution. • (2) A 1000-fold, 3.16-fold-diluted compound solution was prepared. • (3) The 1000× diluted compound solution was diluted 100-fold with PBS to prepare a 10-fold compound solution with a maximum concentration of […], including 9 concentrations, with 3.16-fold dilution, and 10 μL of the medicament solution was added to each well of the 96-well plate to seed the cells. Triplicate wells were set for each compound concentration, with a final concentration of DMSO being 0.1%. • (4) The cells were placed in the 96-well plate filled with the medicament at 37° C., 5% CO2 and at 95% humidity, and cultured for 72 hrs before CTG analysis. 4. Fluorescence Signal Reading • (1) The CTG reagent was thawed and the cell plate was equilibrated to room temperature for 30 min. • (2) An equal volume of CTG solution was added to each well. • (3) The cells were lysed by shaking on an orbital shaker for 5 min. • (4) The cell plate was left at room temperature for 20 min to stabilize the fluorescence signal. • (5) The fluorescence values were read. 5. Data Processing
(§6) Data were analyzed using GraphPad Prism 7.0 software and fitted data were regressed using non-linear S-curves to obtain dose-response curves from which IC50 values (in nM) were calculated.
(In general: ATP-based viability assays read luminescence as a measure of living cells.)

The target in test [1] is Ba/F3 EGFR-V769_D770insASV (Homo sapiens, UniProt P00533, DUP767-769, cells depend on it). The test is described as follows: Proliferation experiment of Ba/F3 cell line, EGFR-V769_D770insASV (CellTiter-Glo). As to conditions: cultured for 72 hrs with compound, CTG analysis, read-out: Ba/F3 EGFR-V769_D770insASV IC50. The method, then:
as §1, §2, §3, §4, §5, §6

The target in test [2] is Ba/F3 EGFR-D770-N771ins_SVD (Homo sapiens, UniProt P00533, DUP768-770, cells depend on it). The test is described as follows: Proliferation experiment of Ba/F3 cell line, EGFR-D770-N771ins_SVD (CellTiter-Glo). Particulars: cultured for 72 hrs with compound, CTG analysis, read-out: Ba/F3 EGFR-D770-N771ins_SVD IC50. Here is the method:
as §1, §2, §3, §4, §5, §6

Each structure is given as a SMILES string.

Chain of Ba/F3 EGFR-D770-N771ins_SVD (P00533 with tags, fused parts or gaps DUP768-770): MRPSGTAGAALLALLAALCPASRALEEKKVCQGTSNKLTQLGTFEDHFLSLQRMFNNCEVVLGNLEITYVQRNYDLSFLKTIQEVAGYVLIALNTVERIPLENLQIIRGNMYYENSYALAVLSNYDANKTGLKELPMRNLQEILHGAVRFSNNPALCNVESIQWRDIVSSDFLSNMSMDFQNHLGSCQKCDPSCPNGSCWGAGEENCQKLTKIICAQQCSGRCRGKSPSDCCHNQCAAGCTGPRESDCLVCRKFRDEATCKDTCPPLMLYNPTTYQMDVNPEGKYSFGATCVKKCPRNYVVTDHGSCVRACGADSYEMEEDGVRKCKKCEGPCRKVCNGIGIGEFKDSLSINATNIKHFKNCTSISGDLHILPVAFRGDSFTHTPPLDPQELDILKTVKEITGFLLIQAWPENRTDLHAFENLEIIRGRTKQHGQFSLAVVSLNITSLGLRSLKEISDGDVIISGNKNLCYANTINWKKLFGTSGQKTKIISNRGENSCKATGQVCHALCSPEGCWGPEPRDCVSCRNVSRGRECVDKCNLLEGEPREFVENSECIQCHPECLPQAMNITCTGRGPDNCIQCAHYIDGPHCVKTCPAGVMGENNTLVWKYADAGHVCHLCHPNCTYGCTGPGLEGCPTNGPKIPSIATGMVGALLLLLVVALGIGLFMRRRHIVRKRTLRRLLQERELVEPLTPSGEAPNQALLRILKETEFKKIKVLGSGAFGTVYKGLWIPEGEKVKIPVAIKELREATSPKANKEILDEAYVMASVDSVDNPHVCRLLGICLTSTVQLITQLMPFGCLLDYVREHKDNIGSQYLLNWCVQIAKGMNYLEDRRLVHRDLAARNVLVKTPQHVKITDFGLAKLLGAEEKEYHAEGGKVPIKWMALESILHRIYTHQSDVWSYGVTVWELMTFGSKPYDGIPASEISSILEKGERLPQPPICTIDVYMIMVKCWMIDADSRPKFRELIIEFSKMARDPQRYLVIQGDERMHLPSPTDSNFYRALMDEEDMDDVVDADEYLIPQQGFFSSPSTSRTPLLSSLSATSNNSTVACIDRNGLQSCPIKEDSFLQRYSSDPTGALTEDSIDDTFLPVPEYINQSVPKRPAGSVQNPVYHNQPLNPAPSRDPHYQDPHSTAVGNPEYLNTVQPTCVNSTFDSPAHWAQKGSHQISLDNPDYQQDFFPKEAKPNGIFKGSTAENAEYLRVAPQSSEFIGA
Chain of Ba/F3 EGFR-V769_D770insASV (P00533 with tags, fused parts or gaps DUP767-769): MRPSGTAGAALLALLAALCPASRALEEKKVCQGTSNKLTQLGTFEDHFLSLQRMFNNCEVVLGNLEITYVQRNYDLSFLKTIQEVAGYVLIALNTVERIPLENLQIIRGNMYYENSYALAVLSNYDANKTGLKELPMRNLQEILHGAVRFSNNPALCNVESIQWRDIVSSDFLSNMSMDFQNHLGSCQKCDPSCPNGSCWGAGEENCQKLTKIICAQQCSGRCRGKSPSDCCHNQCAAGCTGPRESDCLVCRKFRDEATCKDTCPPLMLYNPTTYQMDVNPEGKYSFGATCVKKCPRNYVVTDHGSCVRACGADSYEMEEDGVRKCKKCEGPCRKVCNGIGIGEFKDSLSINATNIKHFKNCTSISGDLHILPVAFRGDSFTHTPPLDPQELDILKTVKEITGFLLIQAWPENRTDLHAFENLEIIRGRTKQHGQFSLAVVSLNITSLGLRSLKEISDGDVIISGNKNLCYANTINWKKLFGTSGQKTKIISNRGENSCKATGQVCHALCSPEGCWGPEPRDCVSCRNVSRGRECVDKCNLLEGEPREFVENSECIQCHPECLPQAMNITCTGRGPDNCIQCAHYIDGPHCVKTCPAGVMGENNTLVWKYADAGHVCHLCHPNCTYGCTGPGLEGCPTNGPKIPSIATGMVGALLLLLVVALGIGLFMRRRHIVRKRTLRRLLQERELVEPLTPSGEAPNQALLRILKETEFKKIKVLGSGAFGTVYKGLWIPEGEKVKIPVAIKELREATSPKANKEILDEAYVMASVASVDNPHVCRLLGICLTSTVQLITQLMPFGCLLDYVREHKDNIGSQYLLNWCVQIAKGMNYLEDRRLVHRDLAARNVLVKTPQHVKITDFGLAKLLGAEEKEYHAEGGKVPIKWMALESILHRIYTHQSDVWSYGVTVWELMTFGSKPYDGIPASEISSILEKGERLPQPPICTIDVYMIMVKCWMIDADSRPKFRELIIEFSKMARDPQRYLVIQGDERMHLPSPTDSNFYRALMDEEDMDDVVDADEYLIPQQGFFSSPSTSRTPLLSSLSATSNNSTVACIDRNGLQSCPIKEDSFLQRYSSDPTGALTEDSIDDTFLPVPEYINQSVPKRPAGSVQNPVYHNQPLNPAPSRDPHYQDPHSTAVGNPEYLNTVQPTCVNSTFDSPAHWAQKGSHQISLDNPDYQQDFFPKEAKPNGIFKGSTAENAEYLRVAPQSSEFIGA

As usually defined, the IC50 is the concentration that inhibits the measured activity by half. `C=CC(=O)Nc1cc2c(Nc3cccc(-c4ccc(F)cc4F)c3)ncnc2cc1O[C@@H]1CCN(C)C1` [Example 8, (R)-N-(4-((2′,4′-difluoro-[1,1′-biphenyl]-3-yl)amino)-7-((1-methylpyrrolidin-3-yl)oxy)quinazolin-6-yl)acrylamide]: the IC50 in the test with A431 (EGFR-WT) was 343 nM. Also, the GI50 in test [1] stood at 178 nM; in test [2] it was 88.8 nM.

Consider `C=CC(=O)Nc1cc2c(Nc3cccc(-c4c(F)cccc4F)c3)ncnc2cc1OCCN1CCOCC1` [Example 26, N-(4-((2′,6′-difluoro-[1,1′-biphenyl]-3-yl)amino)-7-(2-morpholinoethoxy)quinazolin-6-yl)acrylamide], for which the IC50 in the test on A431 (EGFR-WT) was 33.4 nM. Further, the GI50 in test [1] came to 97.4 nM; in test [2] it was 52.1 nM.

`C=CC(=O)Nc1cc2c(Nc3ccnc(-c4ccccc4F)c3)ncnc2cc1O[C@@H]1CCN(C(C)C)C1` [Example 125, (R)-N-(4-((2-(2-fluorophenyl)pyridin-4-yl)amino)-7-((1-isopropylpyrrolidin-3-yl)oxy)quinazolin-6-yl)acrylamide]: the IC50 in the test on A431 (EGFR-WT) turned out to be 86.5 nM. Further, the GI50 in test [1] stood at 7.8 nM; in test [2], 2.4 nM.

For `C=CC(=O)Nc1cc2c(Nc3ccnc(-c4ccccc4F)c3)ncnc2cc1OCCCN1CCN(CC)CC1` [Example 71, N-(7-(3-(4-ethylpiperazin-1-yl)propoxy)-4-((2-(2-fluorophenyl)pyridin-4-yl)amino)quinazolin-6-yl)acrylamide], the IC50 with A431 (EGFR-WT) amounted to 9.3 nM. Further, the GI50 in test [1] is 3.1 nM; in test [2] it was 1.9 nM.

Consider `C=CC(=O)Nc1cc2c(Nc3cccc(-c4ccc(F)cc4F)c3)ncnc2cc1OCCCN1CCN(C)CC1` [Example 7, N-(4-((2′,4′-difluoro-[1,1′-biphenyl]-3-yl)amino)-7-(3-(4-methylpiperazin-1-yl)propoxy)quinazolin-6-yl)acrylamide], for which the IC50 with A431 (EGFR-WT) turned out to be 238 nM. The GI50 was determined as 28.4 nM in test [1] and 25.2 nM in test [2].

Take `C=CC(=O)Nc1cc2c(Nc3ccc(F)c(-c4ccccn4)c3)ncnc2cc1OCCCN1CCOCC1` [Example 49, N-(4-((4-fluoro-3-(pyridin-2-yl)phenyl)amino)-7-(3-morpholinopropoxy)quinazolin-6-yl)acrylamide]: the IC50 in the test with A431 (EGFR-WT) was 377 nM. Besides, the values for the GI50 in test [1] and in test [2] were 59.1 nM and 28.6 nM, respectively.

For the molecule `C=CC(=O)Nc1cc2c(Nc3ccnc(-c4ccccc4F)c3)ncnc2cc1O[C@@H]1CCN(CCOC)C1` [Example 111, (R)—N-(4-((2-(2-fluorophenyl)pyridin-4-yl)amino)-7-((1-(2-methoxyethyl)pyrrolidin-3-yl)oxy)quinazolin-6-yl)acrylamide], in the test on A431 (EGFR-WT), the IC50 was 84.6 nM. Besides, the GI50 stood at 3.4 nM in test [1] and 1.8 nM in test [2].

`C=CC(=O)Nc1cc2c(Nc3ccnc(-c4ccc(F)cc4F)c3)ncnc2cc1O[C@@H]1CCN(C)C1` [Example 81, (R)-N-(4-((2-(2,4-difluorophenyl)pyridin-4-yl)amino)-7-((1-methylpyrrolidin-3-yl)oxy)quinazolin-6-yl)acrylamide]: in the test with A431 (EGFR-WT), the IC50 worked out at 122 nM. Moreover, the GI50 in test [1] is 5.2 nM; in test [2] it was 3.1 nM.

With `C=CC(=O)Nc1cc2c(Nc3ccnc(-c4ccccc4F)c3)ncnc2cc1N1CCC(N2CCN(C)CC2)CC1` [Example 99, N-(4-((2-(2-fluorophenyl)pyridin-4-yl)amino)-7-(4-(4-methylpiperazin-1-yl)piperidin-1-yl)quinazolin-6-yl)acrylamide], the IC50 in the test with A431 (EGFR-WT) was found to be 315 nM. For the same molecule, the GI50 turned out to be 6.1 nM in test [1] and 2.8 nM in test [2].

In the case of `C=CC(=O)Nc1cc2c(Nc3ccnc(-c4ccc(F)cc4F)c3)ncnc2cc1OCCCN1CCOCC1` [Example 78, N-(4-((2-(2,4-difluorophenyl)pyridin-4-yl)amino)-7-(3-morpholinopropoxy)quinazolin-6-yl)acrylamide], the IC50 in the test on A431 (EGFR-WT) amounted to 41 nM. The GI50 came to 3.8 nM in test [1] and 3.2 nM in test [2].

For the molecule `C=C(F)C(=O)Nc1cc2c(Nc3ccnc(-c4ccccc4F)c3)ncnc2cc1N1CCC1` [Example 105, N-(7-(azetidin-1-yl)-4-((2-(2-fluorophenyl)pyridin-4-yl)amino)quinazolin-6-yl)-2-fluoroacrylamide], in the test on A431 (EGFR-WT), the IC50 stood at 2500 nM. The results for the GI50 in test [1] and in test [2] were 35 nM and 12.7 nM, respectively.

For the molecule `C=CC(=O)Nc1cc2c(Nc3cccc(-c4c(F)cccc4F)c3)ncnc2cc1OCCCN1CCN(C)CC1=O` [Example 33, N-(4-((2′,6′-difluoro-[1,1′-biphenyl]-3-yl)amino)-7-(3-(4-methyl-2-oxopiperazin-1-yl)propoxy)quinazolin-6-yl)acrylamide], in the test with A431 (EGFR-WT), the IC50 came out at 458 nM. Besides, the GI50 in test [1] was 68.3 nM; in test [2], 38.3 nM.

As to `C=C(F)C(=O)Nc1cc2c(Nc3ccnc(-c4ccccc4F)c3)ncnc2cc1N1CCOCC1` [Example 95, 2-fluoro-N-(4-((2-(2-fluorophenyl)pyridin-4-yl)amino)-7-morpholinoquinazolin-6-yl)acrylamide], the IC50 with A431 (EGFR-WT) is 1820 nM. The GI50 in test [1] amounted to 8.3 nM; in test [2], 3.3 nM.

Take `C=C(F)C(=O)Nc1cc2c(Nc3ccnc(-c4ccccc4F)c3)ncnc2cc1OCC(F)(F)F` [Example 88, 2-fluoro-N-(4-((2-(2-fluorophenyl)pyridin-4-yl)amino)-7-(2,2,2-trifluoroethoxy)quinazolin-6-yl)acrylamide]: in the test on A431 (EGFR-WT), the IC50 was found to be 687 nM. Besides, the results for the GI50 in test [1] and in test [2] were 25.5 nM and 10.1 nM, respectively.

Turning to `C=CC(=O)Nc1cc2c(Nc3cccc(-c4ccc(F)cc4F)c3)ncnc2cc1OCCCN1CCC(F)(F)C1` [Example 15, N-(4-((2′,4′-difluoro-[1,1′-biphenyl]-3-yl)amino)-7-(3-(3,3-difluoropyrrolidin-1-yl)propoxy)quinazolin-6-yl)acrylamide], the IC50 in the test on A431 (EGFR-WT) came to 498 nM. Moreover, the values for the GI50 in test [1] and in test [2] were 137 nM and 56.1 nM, respectively.

As to `C=CC(=O)Nc1cc2c(Nc3cccc(-c4ncc(F)cc4F)c3)ncnc2cc1OCCCN1CCOCC1` [Example 17, N-(4-((3-(3,5-difluoropyridin-2-yl)phenyl)amino)-7-(3-morpholinopropoxy)quinazolin-6-yl)acrylamide], the IC50 with A431 (EGFR-WT) was found to be 518 nM. The GI50 was determined as 90.9 nM in test [1] and 26.1 nM in test [2].

In the case of `C=CC(=O)Nc1cc2c(Nc3ccnc(-c4ccccc4F)c3)ncnc2cc1N1CCOCC1` [Example 94, N-(4-((2-(2-fluorophenyl)pyridin-4-yl)amino)-7-morpholinoquinazolin-6-yl)acrylamide], the IC50 with A431 (EGFR-WT) amounted to 2330 nM. For the same molecule, the GI50 was determined as 1.9 nM in test [1] and 1.4 nM in test [2].

Consider `C=CC(=O)Nc1cc2c(Nc3ccc(F)c(-c4ncccc4F)c3)ncnc2cc1OCCCN1CCN(C)CC1` [Example 43, N-(4-((4-fluoro-3-(3-fluoropyridin-2-yl)phenyl)amino)-7-(3-(4-methylpiperazin-1-yl)propoxy)quinazolin-6-yl)acrylamide], for which, in the test with A431 (EGFR-WT), the IC50 stood at 284 nM. Further, the GI50 in test [1] came out at 49.3 nM; in test [2], 27.8 nM.

Turning to `C=C(F)C(=O)Nc1cc2c(Nc3ccnc(-c4ccccc4F)c3)ncnc2cc1OCC1CC1` [Example 91, N-(7-(cyclopropylmethoxy)-4-((2-(2-fluorophenyl)pyridin-4-yl)amino)quinazolin-6-yl)-2-fluoroacrylamide], in the test with A431 (EGFR-WT), the IC50 was 655 nM. Besides, the GI50 stood at 32.7 nM in test [1] and 12.7 nM in test [2].

Source of the values: patent publication US12649727B2, “EFGR inhibitor, preparation method therefor and application thereof” (Abbisko Therapeutics Co., Ltd, priority 2020, dated 2026).
